{"source": "paper PMC10139132", "about": "“Immobilization of M3 Muscarinic Receptor to Rapidly Analyze Drug—Protein Interactions and Bioactive Components in a Natural Plant” (International Journal of Molecular Sciences, 2023)", "key": {"[1]": {"system": "M3 muscarinic receptor (M3R)", "assay_type": "binding"}, "muscarinic M3 receptor": {"biological_target": "muscarinic M3 receptor", "settings": "cited from earlier work"}, "[2]": {"system": "M3 muscarinic receptor (M3R)", "assay_type": "binding", "settings": "immobilized M3R column; flow rates 0.4-3.6 mL/min"}, "immobilized M3R [3]": {"system": "immobilized M3R", "assay": "Identification of M3R-binding bioactive compounds in Daturae Flos extract on M3R-immobilized column with HPLC-MS", "settings": "retained peak 2 of Daturae Flos extract, identified by HPLC-MS/MS", "method": "The heating under reflux method was used to make the anhydrous extract of […]. In brief, 10 g of dried DF was soaked in 100 mL of water for 0.5 h, boiled for 2 × 1 h, filtered, and concentrated to 10 mL via rotary evaporation at 60 °C under reduced pressure. A solution of 95% ethanol was applied to carry out alcohol sedimentation to reduce the alcohol content of the concentrated extract to 75%. The liquid supernatant was concentrated at 60 °C to obtain an herbal solution of 1.0 g/mL.\nThe M3R-immobilized column was utilized to analyze the active components in the DF extract with an Agilent 1100 chromatographic system. The mobile phase was 5 mM ammonium acetate buffer, the flow rate was 0.3 mL/min, the sample volume was 10 μL, and the detection wavelength was 254 nm. […] It was further analyzed using high performance liquid chromatography (HPLC)–mass spectrometry (MS).\nAn Eclipse XDB-C18 column (2.1 × 150 mm, 3.5 μm) was employed for chromatographic analysis with a 0.1% formic acid solution and methanol (40:60, v/v) as the mobile phase, a flow rate of 0.3 mL/min, and a column temperature of 30 °C. The MS analysis was carried out in both negative and positive modes with a scan range of 100–2000 amu, a nebulizing gas pressure of 30 psi, a flow rate of 8.0 L/min, and a dry gas temperature of […], respectively."}, "immobilized M3R [4]": {"system": "immobilized M3R", "assay": "Specificity of the M3R-immobilized column (retention times of ligands)", "assay_type": "binding"}, "[5]": {"settings": "phosphate buffer 20 mM pH 7.4, flow rate 0.2 mL/min, injection 10 μL"}}, "note": "Structures can show the parent of a compound that is named as a salt.", "data": [{"molecule": "CN1[C@@H]2CC(OC(=O)[C@H](CO)c3ccccc3)C[C@H]1[C@@H]1O[C@@H]12.Cl", "note": "(single isomer, unassigned; (-)) [(−)-Scopolamine hydrochloride]", "values": [{"measurement": "KA by Frontal Analysis (association constant)", "setting": "[1]", "value": "(2.39 ± 0.03) × 10^4 M^−1"}, {"measurement": "kd by the Radioligand Binding Assay", "setting": "muscarinic M3 receptor", "value": "0.31 ± 0.03", "unit": "min⁻¹"}]}, {"molecule": "CN1[C@@H]2CC[C@H]1C[C@@H](OC(=O)C(CO)c1ccccc1)C2", "note": "(stereo partly shown) [Atropine sulfate, atropine sulfate]", "values": [{"measurement": "KA by Frontal Analysis (association constant)", "setting": "[1]", "value": "(3.71 ± 0.03) × 10^4 M^−1"}, {"measurement": "kd by the Peak Profiling Method (dissociation rate constant)", "setting": "[2]", "value": "14.28 ± 0.17", "unit": "min⁻¹"}]}, {"molecule": "CN1[C@@H]2CC[C@H]1C[C@@H](OC(=O)[C@H](CO)c1ccccc1)C2", "note": "[Hyoscyamine, hyoscyamine]", "values": [{"measurement": "binding to M3R of compounds from the DF extract", "setting": "immobilized M3R [3]", "value": "bind to M3R"}]}, {"molecule": "CC[C@@H]1C(=O)OC[C@@H]1Cc1cncn1C", "note": "[Pilocarpine]", "values": [{"measurement": "retention time on the M3R-immobilized column", "setting": "immobilized M3R [4]; [5]", "value": 5.4, "unit": "min"}]}, {"molecule": "CCCCC(=O)N(Cc1ccc(-c2ccccc2-c2nnn[nH]2)cc1)[C@H](C(=O)O)C(C)C", "note": "[Valsartan]", "values": [{"measurement": "specific binding on the M3R-immobilized column", "setting": "immobilized M3R [4]; judged from retention time vs system void time", "value": "no specific binding occurred"}, {"measurement": "retention time on the M3R-immobilized column", "setting": "immobilized M3R [4]; [5]", "value": 2.3, "unit": "min"}]}, {"molecule": "CN1[C@@H]2C[C@@H](OC(=O)[C@H](CO)c3ccccc3)C[C@H]1[C@@H]1O[C@@H]12", "note": "[scopolamine]", "values": [{"measurement": "binding to M3R of compounds from the DF extract", "setting": "immobilized M3R [3]", "value": "bind to M3R"}]}, {"molecule": "O=N[O-].[Na+]", "note": "[sodium nitrite, Sodium nitrite]", "values": [{"measurement": "retention time on the M3R-immobilized column", "setting": "immobilized M3R [4]; pH 7.4", "value": 1.1, "unit": "min"}]}]}
